Experimental data from PubChem BioAssay (NCI).
Several values for one entry are separate records, joined by “and”; a condition that tells them apart may be missing. Identical values can stand only once.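 Interpolation was linear, between the two tested concentrations surrounding the appropriate level; five concentrations were tested over 48 hours in 96-well plates. At the GI50, growth is halved. TGI: concentration producing complete growth inhibition.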 *1 amine or outer side, *2 acyl side, *3 side chain or, on linkers, in order; H or OH if unused. Where a SMILES comes first, the peptide text is derived from it. Bridges are numbered along the chain shown (N, C = ends). [ ]: non-standard residue; d: D form. ξ: configuration not given here. X4 = CCC(C)C(N[*:1])C(O)CC(=O)O[C@H](C(=O)C(C)C(=O)[*:2])C(C)C; NMeY = CN[C@@H](Cc1ccc(O)cc1)C(=O)O; ξNMeL = CNC(CC(C)C)C(=O)O; ξT = CC(O)C(N)C(=O)O

How the values were obtained:
Experiment in all cases: NCI tumour cell line growth inhibition, 48 h
OVCAR-5 ovarian = tested on: OVCAR-5 ovarian
SN12C renal = tested on: SN12C renal
SNB-19 CNS = tested on: SNB-19 CNS
SW-620 colon = tested on: SW-620 colon
PC-3 prostate = tested on: PC-3 prostate
HS 578T breast = tested on: HS 578T breast
HCT-116 colon = tested on: HCT-116 colon
RPMI-8226 leukemia = tested on: RPMI-8226 leukemia
SK-MEL-5 melanoma = tested on: SK-MEL-5 melanoma
BT-549 breast = tested on: BT-549 breast

| SMILES | TGI (OVCAR-5 ovarian) | TGI (SN12C renal) | TGI (SNB-19 CNS) | TGI (SW-620 colon) | TGI (PC-3 prostate) | TGI (HS 578T breast) | TGI (HCT-116 colon) | TGI (RPMI-8226 leukemia) | TGI (SK-MEL-5 melanoma) | TGI (BT-549 breast) | GI50 (SNB-19 CNS) | GI50 (RPMI-8226 leukemia) | GI50 (SK-MEL-5 melanoma) | GI50 (OVCAR-5 ovarian) | GI50 (SN12C renal) | GI50 (SW-620 colon) | GI50 (PC-3 prostate) | GI50 (HS 578T breast) | GI50 (HCT-116 colon) |
| --- | --- | --- | --- | --- | --- | --- | --- | --- | --- | --- | --- | --- | --- | --- | --- | --- | --- | --- | --- |
| CCCCCCCCCCCCCCCCCCOCC(O)COP(=O)(O)OCC1OC(n2cc(F)c(=O)[nH]c2=O)CC1O (configuration not stated) | 26.3 µM | 27.9 µM | 25.3 µM | > 61.4 µM | 18.8 µM | 23.5 µM | 19.6 µM | 22.5 µM | 24.1 µM | 27.3 µM | – | – | – | – | – | – | – | – | – |
| CC(C)n1c(=O)n(-c2ccccc2)n(C(C)(C)C)c1=O | > 100 µM | > 100 µM | > 100 µM | > 100 µM | > 100 µM | > 100 µM | > 100 µM | – | > 100 µM | > 100 µM | – | – | – | – | – | – | – | – | – |
| COC(=O)C1(C(=O)OC)N=C(C)OC1C(C)C (configuration not stated) | > 100 µM | > 100 µM | > 100 µM | > 100 µM | > 100 µM | – | > 100 µM | > 100 µM | > 100 µM | > 100 µM | – | – | – | – | – | – | – | – | – |
| O=C(NNC(=S)Nc1ccccc1)c1csc(NC(=S)NC2CCCCC2)n1 | > 100 µM | > 100 µM | – | > 100 µM | > 100 µM | – | > 100 µM | > 100 µM | 38.8 µM | > 100 µM | – | – | – | – | – | – | – | – | – |
| CCC(C)C1NC(=O)C(NC(=O)C(CC(C)C)N(C)C(=O)[C@@H]2CCCN2)C(C)OC(=O)[C@H](Cc2ccc(OC)cc2)N(C)C(=O)[C@@H]2CCCN2C(=O)[C@H](CC(C)C)NC(=O)C(C)C(=O)[C@H](C(C)C)OC(=O)CC1O (some centres not stated) (H-P[ξNMeL][ξT][X4]LP[NMeY](Me); ester 3-C) | 0.0794 µM | – | 0.0398 µM | 0.0802 µM and 0.0232 µM | 0.0115 µM | – | – | – | 0.00748 µM | 0.0104 µM | – | – | – | – | – | – | – | – | – |
| CN1C2CC(=O)CC1[C@@H]1OC(c3ccccc3)O[C@H]21 (some centres not stated) | – | > 100 µM | > 100 µM | > 100 µM | > 100 µM | > 100 µM | > 100 µM | > 100 µM | > 100 µM | > 100 µM | – | – | – | – | – | – | – | – | – |
| O=C(Nc1cccc(-c2cn3ccccc3n2)c1)c1ccncc1 | > 100 µM | > 100 µM | > 100 µM | > 100 µM | > 100 µM | > 100 µM | > 100 µM | 39.7 µM | 71.4 µM | 72 µM | – | – | – | – | – | – | – | – | – |
| COC(OC)C(O)C1OC=CC1n1cnc2c(N)ncnc21 (configuration not stated) | – | > 100 µM | – | > 100 µM | > 100 µM | > 100 µM | > 100 µM | > 100 µM | > 100 µM | > 100 µM | – | – | – | – | – | – | – | – | – |
| Cc1ccc(O)c(C2=NNC(c3cccc(Br)c3)C2)c1 (configuration not stated) | > 100 µM | > 100 µM | 76.3 µM | > 100 µM | > 100 µM | > 100 µM | > 100 µM | > 100 µM | > 100 µM | > 100 µM | – | – | – | – | – | – | – | – | – |
| N#CC1=CNc2sccc2S1(=O)=O | > 100 µM | > 100 µM | > 100 µM | > 100 µM | > 100 µM | > 100 µM | > 100 µM | > 100 µM | > 100 µM | > 100 µM | – | – | – | – | – | – | – | – | – |
| N#CCCN(CCCN(C(=O)Nc1ccccc1)c1ccccc1)C(=O)Nc1ccccc1 | > 100 µM | > 100 µM | > 100 µM | > 100 µM | > 100 µM | – | > 100 µM | > 100 µM | > 100 µM | > 100 µM | – | – | – | – | – | – | – | – | – |
| CC(C)(C)OC(=O)N1C(OP(=O)(Oc2ccccc2)Oc2ccccc2)=COc2cccnc21 | > 100 µM | > 100 µM | > 100 µM | > 100 µM | > 100 µM | > 100 µM | > 100 µM | 53.2 µM | 35.5 µM | > 100 µM | – | – | – | – | – | – | – | – | – |
| O=C(c1ccco1)N(C(=S)OCc1ccccn1)c1ccccc1 | > 100 µM | > 100 µM | > 100 µM | > 100 µM | > 100 µM | > 100 µM | > 100 µM | > 100 µM | > 100 µM | > 100 µM | – | – | – | – | – | – | – | – | – |
| CC(C)(C)N1Cc2ccccc2/C(=C/Sc2ccccc2)C1=O | 39.8 µM | 23.8 µM | 30.9 µM | 27.4 µM | 26.6 µM | 41.2 µM | 19.8 µM | 26 µM | 20.2 µM | 20.1 µM | – | – | – | – | – | – | – | – | – |
| NC(=O)CC(Nc1ncc2c(n1)-c1ccccc1OC2)C(=O)O (configuration not stated) | > 100 µM | > 100 µM | > 100 µM | > 100 µM | > 100 µM | > 100 µM | > 100 µM | 82.5 µM | > 100 µM | – | – | – | – | – | – | – | – | – | – |
| O=C(N=Nc1ccccc1Br)NNc1ccccc1Br | > 100 µM | > 100 µM | > 100 µM | > 100 µM | > 100 µM | – | > 100 µM | > 100 µM | > 100 µM | > 100 µM | – | – | – | – | – | – | – | – | – |
| COC1/C=C/C(C)C(C(C)C(OC)C(C)CCC(=O)C(C)C(CCC(=O)O)OC)OC(=O)/C=C/C=C(\C)CC(OC)CC2=CC(=O)O[C@@H](C(C)C(OC)CC(OC)/C=C/C(C)C(OC)C1)[C@H]2O (some centres not stated) | > 5 µM | > 5 µM | > 5 µM | > 5 µM | 2.82 µM | > 5 µM | > 5 µM | > 3.94 µM | 2.88 µM | 2.85 µM | – | – | – | – | – | – | – | – | – |
| N#CCc1nc(C#N)c(N)o1 | > 100 µM | > 100 µM | > 100 µM | > 100 µM | > 100 µM | > 100 µM | > 100 µM | > 100 µM | > 100 µM | > 100 µM | > 100 µM | > 100 µM | > 100 µM | – | – | – | – | – | – |
| COc1cccc(-c2nc3sccn3c2-c2ccnc(NCCNC(=O)Nc3cccc(C(F)(F)F)c3)n2)c1 | 52.2 µM | 26.5 µM | > 100 µM | 91.5 µM | 11.9 µM | 29 µM | 11.6 µM | 5.11 µM | 15.9 µM | – | 7.77 µM | 1.92 µM | 4.27 µM | 6.37 µM | 4.03 µM | 4.47 µM | 2.48 µM | 3.15 µM | 3.45 µM |
| CSCCC(NC(=O)OC(C)(C)C)C(=O)NCCNc1ccc(NCCNC(=O)C(CCSC)NC(=O)OC(C)(C)C)c2c1C(=O)c1ccccc1C2=O (configuration not stated) | 17.2 µM | 21 µM | 16.6 µM | 7.3 µM | 17.7 µM | 31.2 µM | > 29.6 µM | 12.2 µM | 13.2 µM | 9.59 µM | – | – | – | – | – | – | – | – | – |
